Test systems include SNB-19; SK-OV-3; OVCAR-4; HCT-15; COLO 205; A498; HT-29; SF-539; IGROV-1; SK-MEL-5; OVCAR-3; BT-549; SK-MEL-2; MDA-MB-435; RPMI-8226; NCI-H522; K562; MDA-N.
Holding throughout (assay): NCI anticancer screen, dose series, 48 h

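The compound was tested at five concentrations on cells cultured in 96-well plates, with a 48-hour exposure period. GI50 is the concentration that inhibits growth by half.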 Active and inactive are the calls of the source. Cut-off read from the data, not from the text of the source: active = GI50 up to about 1.1 µM and inactive = higher.

For `c1ccc2cc(-c3cc(-c4cc(-c5ccc6ccccc6c5)on4)no3)ccc2c1`, the GI50 with SNB-19 was 15 µM (inactive); in the experiment with SK-OV-3, > 100 µM (inactive); with OVCAR-4, > 100 µM (inactive); in the experiment on HCT-15, more than 100 µM; in the experiment with COLO 205, > 100 µM (inactive); in the experiment with A498 it was > 100 µM (inactive). The GI50 with HT-29, in the experiment with SF-539, with IGROV-1, with SK-MEL-5, in the experiment on OVCAR-3 and with BT-549 was > 100 µM (inactive) each time. Besides, the GI50 in the experiment on SK-MEL-2, with MDA-MB-435, with RPMI-8226, in the experiment on NCI-H522, in the experiment on K562 and in the experiment on MDA-N was > 100 µM (inactive) in each case.
Take `CCCCSCc1nc2nc(Cl)c(Cl)nc2[nH]1`: the GI50 was 35.3 µM (inactive) with SNB-19; 18.7 µM (inactive) with SK-OV-3; 29.5 µM (inactive) in the experiment on OVCAR-4; 23.4 µM in the experiment with HCT-15; 21.3 µM (inactive) in the experiment on COLO 205; 21.8 µM (inactive) with A498. Moreover, the GI50 with HT-29 is 30.8 µM (inactive); in the experiment with SF-539 it was 50.2 µM (inactive); in the experiment on IGROV-1, 33.1 µM (inactive); in the experiment with SK-MEL-5, 11.8 µM (inactive); with OVCAR-3, 12.4 µM (inactive); with BT-549, 27.1 µM (inactive). The GI50 with SK-MEL-2 is 18.7 µM (inactive); in the experiment with MDA-MB-435, 33.5 µM (inactive); with RPMI-8226, 12.9 µM (inactive); with NCI-H522, 17.8 µM (inactive); in the experiment on K562, 24 µM (inactive); in the experiment with MDA-N, 25.1 µM (inactive).
On to `CCOc1cc2c(cc1O)/C(=N\N)C[C@@H]1[C@@H]2CC[C@]2(C)[C@@H](O)CC[C@@H]12`, for which the GI50 in the experiment with SNB-19 is 3.87 µM (inactive); in the experiment on SK-OV-3 it was 5.18 µM (inactive); in the experiment with OVCAR-4, 24.7 µM (inactive); in the experiment with HCT-15, 1.31 µM; in the experiment with COLO 205 it was 27.4 µM (inactive); in the experiment on A498, 12.4 µM (inactive). Moreover, the GI50 in the experiment on HT-29 is 9.53 µM (inactive); in the experiment on SF-539, 3.13 µM (inactive); in the experiment on IGROV-1 it was 6.97 µM (inactive); in the experiment with SK-MEL-5 it was 1.28 µM (inactive); with OVCAR-3, 2.32 µM (inactive); with BT-549 it was 4.26 µM (inactive). Further, the GI50 in the experiment with SK-MEL-2 was 4.38 µM (inactive); in the experiment on MDA-MB-435, 0.281 µM (active); with RPMI-8226, 4.48 µM (inactive); in the experiment with NCI-H522 it was 2.8 µM (inactive); in the experiment with K562 it was 0.42 µM (active); in the experiment with MDA-N it was 0.261 µM (active).
Regarding `COc1cc(C2c3cc4c(cc3OC(NCc3ccccc3)C2C)OCO4)cc(OC)c1OC` (stereo not drawn), the GI50 was 0.452 µM (active) with SNB-19; 0.476 µM (active) in the experiment with SK-OV-3; 0.644 µM (active) in the experiment on OVCAR-4; 0.543 µM with HCT-15; 0.252 µM (active) with COLO 205; 0.667 µM (active) in the experiment on A498. Besides, the GI50 is 0.337 µM (active) in the experiment with HT-29; 0.273 µM (active) with SF-539; 0.448 µM (active) in the experiment with IGROV-1; 0.261 µM (active) in the experiment on SK-MEL-5; 0.298 µM (active) in the experiment with OVCAR-3; 0.631 µM (active) in the experiment on BT-549. Moreover, the GI50 in the experiment with SK-MEL-2 is 0.675 µM (active); with MDA-MB-435 it was 0.102 µM (active); in the experiment on RPMI-8226, 0.381 µM (active); in the experiment with NCI-H522, 0.339 µM (active); with K562 it was 0.305 µM (active); in the experiment with MDA-N it was 0.0973 µM (active).
As for `C1=Cc2cccc3occ(c23)C=C1`, the GI50 is 95.1 µM (inactive) in the experiment with SNB-19; > 100 µM (inactive) in the experiment with SK-OV-3; 56.9 µM (inactive) in the experiment with OVCAR-4; 48 µM in the experiment with HCT-15; 29 µM (inactive) in the experiment on COLO 205; > 100 µM (inactive) in the experiment on A498. Further, the GI50 was 35.1 µM (inactive) in the experiment on HT-29; 37.4 µM (inactive) with SF-539; 54.2 µM (inactive) with IGROV-1; > 100 µM (inactive) in the experiment on SK-MEL-5; 31.2 µM (inactive) with OVCAR-3; 39.9 µM (inactive) in the experiment on BT-549. Besides, the GI50 was > 100 µM (inactive) in the experiment with SK-MEL-2; 82 µM (inactive) in the experiment on MDA-MB-435; 33 µM (inactive) in the experiment on NCI-H522; 16.3 µM (inactive) in the experiment with K562; > 100 µM (inactive) in the experiment with MDA-N.
Regarding `CSC(=S)N/N=C(\C)c1cccc(C)n1`, the GI50 in the experiment on SNB-19 was 4.04 µM (inactive); in the experiment on SK-OV-3 it was 0.719 µM (active); in the experiment with OVCAR-4, 0.497 µM (active); in the experiment with HCT-15, 0.375 µM; with COLO 205, 0.0513 µM (active); in the experiment with A498 it was 2.21 µM (inactive). Moreover, the GI50 was 0.133 µM (active) in the experiment with HT-29; 1.17 µM (inactive) in the experiment with SF-539; 1.61 µM (inactive) in the experiment on IGROV-1; 0.558 µM (active) in the experiment on SK-MEL-5; 0.0568 µM (active) in the experiment with OVCAR-3; 5.19 µM (inactive) in the experiment with BT-549. For the same compound, the GI50 in the experiment with SK-MEL-2 was 3.48 µM (inactive); in the experiment on MDA-MB-435, 1.35 µM (inactive); in the experiment with NCI-H522, 0.0815 µM (active); with K562, 0.042 µM (active); with MDA-N it was 0.925 µM (active).
As to `O=C1CCCN1C(=O)CS(=O)(=O)c1ccccc1`, the GI50 is > 100 µM (inactive) in the experiment with SNB-19; > 100 µM (inactive) in the experiment with SK-OV-3; > 100 µM (inactive) in the experiment on OVCAR-4; more than 100 µM in the experiment with HCT-15; > 100 µM (inactive) with COLO 205; > 100 µM (inactive) in the experiment on A498. Also, the GI50 in the experiment on HT-29, in the experiment on IGROV-1, in the experiment with SK-MEL-5, in the experiment with OVCAR-3, in the experiment on BT-549 and in the experiment with SK-MEL-2 was > 100 µM (inactive) throughout. Further, the GI50 with MDA-MB-435, with RPMI-8226, in the experiment on NCI-H522, with K562 and in the experiment with MDA-N was > 100 µM (inactive) throughout.
With `Nc1cccc(C#Cc2cccc(C#Cc3cccc(N)n3)n2)n1`, the GI50 with SNB-19 was > 100 µM (inactive); with SK-OV-3 it was > 100 µM (inactive); in the experiment with OVCAR-4, > 100 µM (inactive); in the experiment with HCT-15, more than 100 µM; with COLO 205, > 100 µM (inactive); with A498 it was > 100 µM (inactive). Besides, the GI50 in the experiment with SF-539 is 39.9 µM (inactive); with IGROV-1, 69.5 µM (inactive); with SK-MEL-5, 47.4 µM (inactive); in the experiment on OVCAR-3, > 100 µM (inactive); with BT-549 it was > 100 µM (inactive); in the experiment with SK-MEL-2, > 100 µM (inactive). Further, the GI50 in the experiment on MDA-MB-435 was 89.9 µM (inactive); in the experiment on RPMI-8226, 91 µM (inactive); with NCI-H522, > 100 µM (inactive); in the experiment with K562, > 100 µM (inactive); with MDA-N, 79.3 µM (inactive).
`N/C(=N\N=C\c1cc2ccccc2s1)c1cnccn1`: the GI50 with SNB-19 is 88.3 µM (inactive); with SK-OV-3, > 100 µM (inactive); in the experiment with OVCAR-4, > 100 µM (inactive); with HCT-15 it was more than 100 µM; in the experiment on COLO 205 it was > 100 µM (inactive); in the experiment with A498, > 100 µM (inactive). Moreover, the GI50 with HT-29, with SF-539, with IGROV-1, in the experiment on SK-MEL-5, with OVCAR-3 and in the experiment with BT-549 was > 100 µM (inactive) in each case. The GI50 is > 100 µM (inactive) in the experiment with SK-MEL-2; > 100 µM (inactive) in the experiment on MDA-MB-435; > 100 µM (inactive) in the experiment with RPMI-8226; > 100 µM (inactive) in the experiment with NCI-H522; 3.85 µM (inactive) with K562; > 100 µM (inactive) with MDA-N.
On to `Cc1cn(C2CC(O)C(COC(=O)NCCC(F)(F)C(F)(F)C(F)(F)C(F)(F)F)O2)c(=O)[nH]c1=O` (stereo not drawn), for which the GI50 with SNB-19, in the experiment with SK-OV-3, in the experiment on OVCAR-4, in the experiment on COLO 205, in the experiment on A498 and in the experiment on HT-29 was > 100 µM (inactive) in each case. Moreover, the GI50 in the experiment on SF-539 is > 100 µM (inactive); in the experiment with IGROV-1, > 100 µM (inactive); in the experiment on SK-MEL-5, > 100 µM (inactive); with OVCAR-3, > 100 µM (inactive); in the experiment with BT-549, > 100 µM (inactive); in the experiment with MDA-MB-435, 75.2 µM (inactive). In addition, the GI50 in the experiment with NCI-H522 was > 100 µM (inactive); in the experiment on K562 it was > 100 µM (inactive); in the experiment with MDA-N, 86.3 µM (inactive).
As for `N#Cc1cnn2ccn(C3OC(COC(=O)c4ccccc4)C(OC(=O)c4ccccc4)C3OC(=O)c3ccccc3)c12` (stereo not drawn), the GI50 is > 21.5 µM (inactive) with SNB-19; > 21.5 µM (inactive) in the experiment with SK-OV-3; > 21.5 µM (inactive) with OVCAR-4; more than 21.5 µM with HCT-15; > 21.5 µM (inactive) in the experiment on COLO 205; 20.5 µM (inactive) with A498. Besides, the GI50 is > 21.5 µM (inactive) in the experiment with HT-29; > 21.5 µM (inactive) with SF-539; > 21.5 µM (inactive) in the experiment on IGROV-1; > 21.5 µM (inactive) in the experiment with SK-MEL-5; > 21.5 µM (inactive) with OVCAR-3; > 100 µM (inactive) with BT-549. Further, the GI50 in the experiment with MDA-MB-435, with RPMI-8226, with NCI-H522, in the experiment with K562 and in the experiment with MDA-N was > 21.5 µM (inactive) throughout.
Turning to `Cc1cccc(CC(Cc2c(C)cccc2C(=O)O)C(=O)O)c1` (stereo not drawn), the GI50 in the experiment on SNB-19 is > 100 µM (inactive); in the experiment with SK-OV-3 it was > 100 µM (inactive); in the experiment on OVCAR-4 it was > 100 µM (inactive); in the experiment on HCT-15 it was 31.3 µM; in the experiment on COLO 205 it was > 100 µM (inactive); with A498, > 100 µM (inactive). In addition, the GI50 with HT-29 is > 100 µM (inactive); with SF-539, > 100 µM (inactive); with IGROV-1, > 100 µM (inactive); with SK-MEL-5, 4.49 µM (inactive); in the experiment with OVCAR-3 it was > 100 µM (inactive); in the experiment on BT-549, > 100 µM (inactive). Moreover, the GI50 was 58.7 µM (inactive) in the experiment with SK-MEL-2; > 100 µM (inactive) with MDA-MB-435; > 100 µM (inactive) in the experiment on RPMI-8226; > 100 µM (inactive) with NCI-H522; > 100 µM (inactive) with K562; > 100 µM (inactive) in the experiment with MDA-N.

Source of the values: ChEMBL document CHEMBL1201862, “PubChem BioAssay data set” (2004).
